Laboratory results reported in the NIST ThermoML archive (doi:10.1016/j.fluid.2011.05.002).

Legend:
[1] = molar heat capacity at constant pressure; conditions: 101.33 kPa, Liquid, Small sample (50 mg) DSC
[2] = for mass density / viscosity: Liquid; for mass density: Vibrating tube method; for viscosity: 101.33 kPa, Capillary tube (Ostwald / Ubbelohde) method; for surface tension liquid-gas: Ring tensiometer

CCCC[n+]1cccc(C)c1.N#C[C-](C#N)C#N [1-butyl-3-methylpyridinium tricyanomethanide]
Conditions	mass density [kg/m3]	molar heat capacity at constant pressure [J/K/mol]	surface tension liquid-gas [mN/m]	viscosity [mPa·s]
[1], 298 K	–	468	–	–
[1], 323 K	–	479	–	–
[2], 283.15 K	1052.57	–	–	–
[2], 293.15 K	1045.79	–	–	–
[2], 295.15 K	–	–	–	51.42
[2], 296.05 K	–	–	27.7	–
[2], 298.15 K	–	–	–	43.92
[2], 303.15 K	1039.12	–	–	34.87
[2], 305.75 K	–	–	27.3	–
[2], 308.15 K	–	–	–	28.22
[2], 313.15 K	1032.55	–	–	23.27
[2], 313.75 K	–	–	26.9	–
[2], 320.65 K	–	–	26.6	–
[2], 323.15 K	1026.1	–	–	16.25
[2], 329.85 K	–	–	26.3	–
[2], 333.15 K	1019.76	–	–	12.19
[2], 338.15 K	–	–	26	–
[2], 343.15 K	1013.52	–	–	9.56
[2], 346.15 K	–	–	25.5	–
[2], 353.15 K	1007.34	–	–	7.54
[2], 356.15 K	–	–	25.1	–
[2], 363.15 K	1001.13	–	–	6.07
